# Results as given in ChEMBL document CHEMBL1154297, “Inhibitor profiling of the Pseudomonas aeruginosa virulence factor LasB using N-alpha mercaptoamide template-based inhibitors” (Bioorg Med Chem Lett, 2009).
# Target: Elastase (Pseudomonas aeruginosa (strain ATCC 15692 / PAO1 / 1C / PRS 101 / LMG12228), UniProt P14756)
# Experiment: Inhibition of Pseudomonas aeruginosa LasB by fluorimetric assay in buffer of pH 7.2
# Conditions: not given; call rule not given here
# Chain of Elastase (P14756 whole entry): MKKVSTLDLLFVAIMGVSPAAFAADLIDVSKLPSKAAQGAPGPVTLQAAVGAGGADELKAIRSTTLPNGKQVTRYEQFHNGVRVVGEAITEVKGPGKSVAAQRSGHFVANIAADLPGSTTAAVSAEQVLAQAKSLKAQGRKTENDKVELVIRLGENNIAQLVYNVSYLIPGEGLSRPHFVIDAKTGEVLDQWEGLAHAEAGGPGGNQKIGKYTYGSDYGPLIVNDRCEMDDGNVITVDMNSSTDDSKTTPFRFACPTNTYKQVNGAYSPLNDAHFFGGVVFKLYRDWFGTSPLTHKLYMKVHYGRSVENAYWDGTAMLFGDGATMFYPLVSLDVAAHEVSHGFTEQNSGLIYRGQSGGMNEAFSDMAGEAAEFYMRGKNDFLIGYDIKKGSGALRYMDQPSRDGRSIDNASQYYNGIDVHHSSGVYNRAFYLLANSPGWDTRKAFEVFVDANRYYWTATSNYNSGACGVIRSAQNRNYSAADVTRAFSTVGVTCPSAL
row,Compound,Ki
1,CC(C)C[C@H](NC(=O)CS)C(=O)N[C@H](C(N)=O)C(C)C,Not Active
2,NC(=O)[C@H](CC(=O)O)NC(=O)[C@H](Cc1ccccc1)NC(=O)CS,Not Active
3,NC(=O)[C@H](CC(=O)O)NC(=O)[C@@H]1CCCN1C(=O)CS,Not Active
4,CC(C)[C@H](NC(=O)[C@H](CC(=O)O)NC(=O)CS)C(N)=O,Not Active
5,C[C@H](NC(=O)CS)C(=O)N[C@@H](Cc1ccccc1)C(N)=O,Not Active
6,CC(C)C[C@H](NC(=O)[C@H](CCCNC(=N)N)NC(=O)CS)C(N)=O,Not Active
7,NC(=O)C[C@H](NC(=O)CS)C(=O)N[C@@H](CC(=O)O)C(N)=O,Not Active
8,CC(C)C[C@H](NC(=O)[C@H](CS)NC(=O)CS)C(N)=O,Not Active
9,CC(C)[C@H](NC(=O)CS)C(=O)N[C@@H](CC(=O)O)C(N)=O,Not Active
10,NC(=O)[C@H](CC(=O)O)NC(=O)[C@H](CCC(=O)O)NC(=O)CS,Not Active
11,C[C@@H](O)[C@H](NC(=O)CS)C(=O)N[C@@H](CC(=O)O)C(N)=O,Not Active
12,CC(C)[C@H](NC(=O)[C@H](CCCNC(=N)N)NC(=O)CS)C(N)=O,Not Active
13,N=C(N)NCCC[C@H](NC(=O)[C@H](CCCCN)NC(=O)CS)C(N)=O,Not Active
14,NC(=O)[C@H](Cc1ccccc1)NC(=O)[C@@H]1CCCN1C(=O)CS,Not Active
15,NCCCC[C@H](NC(=O)CS)C(=O)N[C@@H](Cc1c[nH]c2ccccc12)C(N)=O,Not Active
16,NC(=O)[C@H](CC(=O)O)NC(=O)[C@H](CO)NC(=O)CS,Not Active
17,NCCCC[C@H](NC(=O)[C@H](CO)NC(=O)CS)C(N)=O,Not Active

# Same assay, conditions: read-out: Ki
row,Compound,Ki [µM]
1,CC(C)[C@H](NC(=O)[C@H](CCC(N)=O)NC(=O)CS)C(N)=O,937
2,CC(C)[C@H](NC(=O)[C@@H](NC(=O)CS)C(C)C)C(N)=O,10
3,C[C@H](NC(=O)CS)C(=O)N[C@@H](CCCNC(=N)N)C(N)=O,115
4,CC(C)[C@H](NC(=O)[C@H](CO)NC(=O)CS)C(N)=O,229
5,CC(C)C[C@H](NC(=O)[C@@H](NC(=O)CS)C(C)C)C(N)=O,69
6,NC(=O)[C@H](CCCN=C(N)N)NC(=O)[C@H](Cc1ccc(O)cc1)NC(=O)CS,3
7,NC(=O)[C@H](CCCN=C(N)N)NC(=O)CNC(=O)CS,641
8,NC(=O)[C@H](CCCN=C(N)N)NC(=O)[C@H](Cc1c[nH]c2ccccc12)NC(=O)CS,25
9,CC(C)[C@H](NC(=O)[C@H](CCCCN)NC(=O)CS)C(N)=O,555
10,CC[C@@H](C)[C@H](NC(=O)CS)C(=O)N[C@@H](CCCCN)C(N)=O,190
11,CC(C)C[C@H](NC(=O)[C@H](Cc1c[nH]cn1)NC(=O)CS)C(N)=O,306
12,NC(=O)[C@H](Cc1ccccc1)NC(=O)[C@H](CS)NC(=O)CS,131
13,NC(=O)[C@H](CCCN=C(N)N)NC(=O)[C@H](CC(=O)O)NC(=O)CS,551
14,C[C@H](NC(=O)CS)C(=O)N[C@@H](Cc1c[nH]c2ccccc12)C(N)=O,395
15,NC(=O)[C@H](Cc1c[nH]c2ccccc12)NC(=O)[C@H](CS)NC(=O)CS,108
16,CC(C)[C@H](NC(=O)[C@@H](NC(=O)CS)[C@@H](C)O)C(N)=O,377
17,CSCC[C@H](NC(=O)CS)C(=O)N[C@@H](CCCNC(=N)N)C(N)=O,6.6
18,NC(=O)[C@H](Cc1c[nH]c2ccccc12)NC(=O)[C@H](Cc1c[nH]c2ccccc12)NC(=O)CS,49
19,N=C(N)NCCC[C@H](NC(=O)[C@H](CS)NC(=O)CS)C(N)=O,646

row,Compound,Ki [µM]
1,CC(C)[C@H](NC(=O)[C@H](CC(N)=O)NC(=O)CS)C(N)=O,180
2,N=C(N)NCCC[C@H](NC(=O)CS)C(=O)N[C@@H](CCCCN)C(N)=O,135
3,CC(C)C[C@H](NC(=O)[C@H](Cc1c[nH]c2ccccc12)NC(=O)CS)C(N)=O,3.7
4,NCCCC[C@H](NC(=O)[C@H](Cc1ccccc1)NC(=O)CS)C(N)=O,76
5,NC(=O)[C@H](Cc1ccccc1)NC(=O)[C@H](CCC(=O)O)NC(=O)CS,146
6,NC(=O)[C@H](Cc1c[nH]c2ccccc12)NC(=O)[C@H](CCC(=O)O)NC(=O)CS,704
7,NC(=O)[C@H](Cc1ccccc1)NC(=O)[C@H](CO)NC(=O)CS,75
8,NC(=O)[C@H](Cc1c[nH]c2ccccc12)NC(=O)CNC(=O)CS,122
9,CSCC[C@H](NC(=O)CS)C(=O)N[C@@H](CCCCN)C(N)=O,3.9
10,CSCC[C@H](NC(=O)CS)C(=O)N[C@@H](CC(=O)O)C(N)=O,7
11,NC(=O)[C@H](Cc1ccccc1)NC(=O)CNC(=O)CS,51
12,NCCCC[C@H](NC(=O)[C@H](CCC(N)=O)NC(=O)CS)C(N)=O,380
13,NC(=O)[C@H](Cc1ccccc1)NC(=O)[C@H](Cc1ccccc1)NC(=O)CS,146
14,CC(C)[C@H](NC(=O)[C@H](Cc1c[nH]cn1)NC(=O)CS)C(N)=O,47
15,CC(C)[C@H](NC(=O)[C@H](CCC(=O)O)NC(=O)CS)C(N)=O,730
16,C[C@@H](O)[C@H](NC(=O)CS)C(=O)N[C@@H](Cc1ccccc1)C(N)=O,225
17,CC[C@@H](C)[C@H](NC(=O)CS)C(=O)N[C@@H](CC(=O)O)C(N)=O,142
18,NCCCC[C@H](NC(=O)[C@H](Cc1c[nH]cn1)NC(=O)CS)C(N)=O,332
19,NC(=O)[C@H](Cc1ccccc1)NC(=O)[C@H](Cc1c[nH]c2ccccc12)NC(=O)CS,1.1

row,Compound,Ki [µM]
1,C[C@@H](O)[C@H](NC(=O)CS)C(=O)N[C@@H](CCCN=C(N)N)C(N)=O,616
2,CC(C)[C@H](NC(=O)[C@H](CS)NC(=O)CS)C(N)=O,161
3,NCCCC[C@H](NC(=O)[C@H](Cc1c[nH]c2ccccc12)NC(=O)CS)C(N)=O,10
4,CC(C)C[C@H](NC(=O)CS)C(=O)N[C@@H](Cc1ccccc1)C(N)=O,113
5,CC(C)C[C@H](NC(=O)CS)C(=O)N[C@@H](CCCNC(=N)N)C(N)=O,623
6,CC(C)[C@H](NC(=O)[C@H](Cc1ccccc1)NC(=O)CS)C(N)=O,11
7,NC(=O)[C@H](Cc1c[nH]c2ccccc12)NC(=O)[C@H](CCCN=C(N)N)NC(=O)CS,125
8,CSCC[C@H](NC(=O)CS)C(=O)N[C@@H](Cc1c[nH]c2ccccc12)C(N)=O,204
9,NC(=O)[C@H](CC(=O)O)NC(=O)[C@H](Cc1c[nH]c2ccccc12)NC(=O)CS,38
10,C[C@@H](O)[C@H](NC(=O)CS)C(=O)N[C@@H](Cc1c[nH]c2ccccc12)C(N)=O,65
11,CC(C)[C@H](NC(=O)CS)C(=O)N[C@@H](CCCCN)C(N)=O,22
12,CC(C)C[C@H](NC(=O)CS)C(=O)N[C@@H](CCCCN)C(N)=O,14
13,CC(C)[C@H](NC(=O)[C@H](C)NC(=O)CS)C(N)=O,51
14,NC(=O)C[C@H](NC(=O)CS)C(=O)N[C@@H](Cc1ccccc1)C(N)=O,37
15,CC(C)C[C@H](NC(=O)[C@H](C)NC(=O)CS)C(N)=O,21
16,CC(C)C[C@H](NC(=O)CS)C(=O)N[C@@H](Cc1c[nH]c2ccccc12)C(N)=O,300
17,N=C(N)NCCC[C@H](NC(=O)[C@H](CC(N)=O)NC(=O)CS)C(N)=O,280
18,NC(=O)[C@H](Cc1c[nH]c2ccccc12)NC(=O)[C@H](Cc1ccccc1)NC(=O)CS,206
